For 16 compounds, IC50 results are on record in ChEMBL document CHEMBL1212812, “Multi-target spectral moment QSAR versus ANN for antiparasitic drugs against different parasite species” (Bioorg Med Chem, 2010).

pIC50: −log10 of the molar value.

In one assay the test system is Leishmania mexicana. Nature of the assay: Antimicrobial activity against Leishmania mexicana. The class given is functional, organism-based.
A further assay relates to Leishmania. Put plainly: Antimicrobial activity against Leishmania. The class given is functional.
In a further assay the test system is Plasmodium falciparum. Put plainly: Antimicrobial activity against Plasmodium falciparum. The class given is functional, organism-based.
The test system of a further assay is Trypanosoma brucei. Nature of the assay: Antimicrobial activity against Trypanosoma brucei. The class given is functional, organism-based.
The next assay relates to Trypanosoma cruzi. Nature of the assay: Antimicrobial activity against Trypanosoma cruzi. The class given is functional, organism-based. The settings on record: Trypanosoma cruzi.
A further assay has as its system Leishmania amazonensis. Nature of the assay: Antimicrobial activity against Leishmania amazonensis. The class given is functional, organism-based.
The next assay concerns Leishmania major. Nature of the assay: Antimicrobial activity against Leishmania major. The class given is functional, organism-based.
A further assay relates to Leishmania donovani. Nature of the assay: Antimicrobial activity against Leishmania donovani. The class given is functional, organism-based.

In the assay with Leishmania mexicana, `N=C(N)c1cccc(C(=N)N)c1-c1cc2ccccc2[nH]1` showed a negative-log IC50 (pIC50) of 5.52.

On to `C(=N\Nc1ccccc1)/c1ccc(N2CCN(c3ccc(/C=N/Nc4ccccc4)cc3)CC2)cc1`, for which, in the assay with Leishmania, the pIC50 is 4.47.

For the compound `Cn1c2nc3ccccc3c-2cc2ccc(Br)cc21`, the pIC50 in the assay with Plasmodium falciparum was 4.52; in the assay on Trypanosoma brucei, 4.57; with Trypanosoma cruzi it was 4.49.

`Cn1c2nc3ccccc3c-2cc2ccc(C(F)(F)F)cc21`: the pIC50 is 4.80 with Plasmodium falciparum, 4.77 with Trypanosoma brucei and 4.49 in the assay with Trypanosoma cruzi.

Turning to `C[C@]12CC[C@H](O)C[C@@H]1CC[C@@H]1[C@@H]2CC[C@@]2(C)[C@H]1CC[C@@H]2[C@@](C)(O)c1ccncc1`, the negative-log IC50 (pIC50) is 6.00 with Leishmania amazonensis, 4.92 in the assay on Leishmania major and 6.00 in the assay with Trypanosoma cruzi.

For the compound `C[C@]12CC[C@H](O)C[C@@H]1CC[C@@H]1[C@@H]2CC[C@@]2(C)[C@H]1CC[C@@H]2[C@@](C)(O)c1ccncc1Cl`, the pIC50 in the assay on Leishmania amazonensis was 6.00; in the assay on Leishmania major, 5.10; in the assay on Trypanosoma cruzi, 6.00.

In the case of `C[C@]12CC[C@H](O)C[C@@H]1CC[C@@H]1[C@@H]2CC[C@@]2(C)[C@H]1CC[C@@H]2[C@@](C)(O)C1CCCNC1` (stereo partly drawn), the negative-log IC50 (pIC50) was 4.89 in the assay on Leishmania major and 4.64 with Trypanosoma cruzi.

For the compound `CCC(=O)N1CCCCC1[C@](C)(O)[C@H]1CC[C@H]2[C@@H]3CC[C@H]4C[C@@H](O)CC[C@]4(C)[C@H]3CC[C@@]21C` (stereo partly drawn), the pIC50 with Leishmania major was 4.27; in the assay on Trypanosoma cruzi it was 4.19.

With `C[C@]12CC[C@H](O)C[C@@H]1CC[C@@H]1[C@@H]2CC[C@@]2(C)[C@H]1CC[C@@H]2[C@@](C)(O)c1ccccn1`, the pIC50 with Leishmania amazonensis was 5.52; in the assay with Leishmania major it was 4.00; in the assay on Trypanosoma cruzi it was 6.00.

Consider `C[C@]12CC[C@H](O)C[C@@H]1CC[C@@H]1[C@@H]2CC[C@@]2(C)[C@H]1CC[C@@H]2[C@@](C)(O)c1cccnc1`, for which the pIC50 in the assay with Leishmania major was 4.00; in the assay with Trypanosoma cruzi it was 4.30.

Take `CN1CCN(C)C1c1ccc(N2CCN(c3ccc(C4N(C)CCN4C)cc3)CC2)cc1`: the values for the pIC50 in the assay with Leishmania and with Plasmodium falciparum were 4.00 and 6.00, respectively.

`Cn1c2nc3ccccc3c-2cc2ccc(Cl)cc21`: the pIC50 is 5.30 with Plasmodium falciparum, 5.05 in the assay on Trypanosoma brucei and 4.77 in the assay on Trypanosoma cruzi.

`C=CC(C)(C)c1cc(/C=C/C(=O)c2ccc(O)cc2)c(OC)cc1O` [LICOAGROCHACONE A] gave a pIC50 in the assay on Leishmania major of 4.85.

As for `N=C(N)c1ccc(OCCCCCOc2ccc(C(=N)N)cc2)cc1` [PENTAMIDINE], the pIC50 in the assay with Leishmania mexicana and with Leishmania donovani was 6.00 each time.

The compound `N=C(N)c1ccc(OCCCOc2ccc(C(=N)N)cc2)cc1` [PROPAMIDINE] showed a pIC50 in the assay with Leishmania mexicana of 5.00.

For `N=C(N)c1ccc(/C=C/c2ccc(C(=N)N)cc2)cc1` [STILBAMIDINE], the negative logarithm of the IC50 (pIC50) in the assay on Leishmania mexicana is 5.05.
